Assay results from patent US10947252B2, “Inhibitors of KEAP1-Nrf2 protein-protein interaction” (Janssen Pharmaceutica NV, priority 2018, dated 2021).

Key:
[1] = biological target: Kelch domain of human KEAP1 (321-624 aa) (Homo sapiens (Human), UniProt Q14145); test: KEAP1 KELCH ThermoFluor binding assay; settings: KEAP Kelch […], 1,8-ANS, pH 7.0, average of results obtained, read-out: Tf Kd;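 note: Ligand-induced melting temperature shift of E. coli-expressed KEAP1 Kelch protein, Kd estimated from concentration-response curves of ΔTm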
Chain of Kelch domain of human KEAP1 (321-624 aa) (Q14145 321-624): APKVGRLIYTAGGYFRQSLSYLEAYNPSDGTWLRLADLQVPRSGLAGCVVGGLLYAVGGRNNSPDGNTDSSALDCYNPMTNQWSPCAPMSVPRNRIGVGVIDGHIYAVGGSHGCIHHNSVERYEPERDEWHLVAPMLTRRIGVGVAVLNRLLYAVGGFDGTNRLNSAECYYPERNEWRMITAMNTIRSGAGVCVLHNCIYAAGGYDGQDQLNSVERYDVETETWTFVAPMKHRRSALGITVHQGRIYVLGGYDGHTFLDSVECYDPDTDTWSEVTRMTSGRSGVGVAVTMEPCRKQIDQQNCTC

[2] = system: Glo-Response ARE-luc2P HEK293 cell line; test: ARE luciferase reporter cell-based assay; settings: Homo sapiens, HEK293, 24 h, average of results obtained;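 note: luciferase signal tracks Nrf2 activation of the ARE once compounds disrupt KEAP1-Nrf2 binding, read with One-Glo reagent, DMSO serving as low control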

| Kd [1] [nM] | SMILES | EC50 [2] [nM] |
| --- | --- | --- |
| 14.8 | Cc1ncc([C@@H](CC(=O)O)c2ccn3c(C(F)(F)F)nnc3c2C)cc1CN1CC2(CCOCC2)Oc2ncccc2S1(=O)=O (single isomer, unassigned) [Example 562, (*S)-3-(5-((1′,1′-Dioxido-2,3,5,6-tetrahydrospiro[pyran-4,4′-pyrido[2,3-b][1,4,5]oxathiazepin]-2′(3′H)-yl)methyl)-6-methylpyridin-3-yl)-3-(8-methyl-3-(trifluoromethyl)-[1,2,4]triazolo[4,3-a]pyridin-7-yl)propanoic Acid] | 2490 |
| 2.2 | Cc1c([C@H](CC(=O)O)c2ccc(Cl)c(CN3CC4CCCCN4c4ncccc4S3(=O)=O)c2)ccn2c(C(F)(F)F)nnc12 (single isomer, unassigned) [Example 85, (*R)-3-(4-Chloro-3-(((*S)-5,5-dioxido-7,7a,8,9,10,11-hexahydro-6H-dipyrido[2,1-d:2′,3′-f][1,2,5]thiadiazepin-6-yl)methyl)phenyl)-3-(8-methyl-3-(trifluoromethyl)-[1,2,4]triazolo[4,3-a]pyridine-7-yl)propanoic Acid] | 1510 |
| 1590 | Cc1cnc2c(c1)S(=O)(=O)N(Cc1cc([C@@H](c3cc4cc(C)nnc4n3C)C(C)(C)C(=O)O)ccc1C)CC1(CC1)O2 (single isomer, unassigned) [Example 330, (*S)-3-(3,7-Dimethyl-7H-pyrrolo[2,3-c]pyridazin-6-yl)-2,2-dimethyl-3-(4-methyl-3-((8′-methyl-1′,1′-dioxidospiro[cyclopropane-1,4′-pyrido[2,3-b][1,4,5]oxathiazepin]-2′(3′H)-yl)methyl)phenyl)propanoic Acid] | 7520 |
| < 1 | Cc1ccc([C@@H](c2ccn3c(C(F)(F)F)nnc3c2C)C(C)(C)C(=O)O)cc1CN1CC2(CCOCC2)Oc2nc(OCCN3CCCC3)c(C)cc2S1(=O)=O (single isomer, unassigned) [Example 370, (*S)-2,2-Dimethyl-3-(4-methyl-3-((8′-methyl-1′,1′-dioxido-7′-(2-(pyrrolidin-1-yl)ethoxy)-2,3,5,6-tetrahydrospiro[pyran-4,4′-pyrido[2,3-b][1,4,5]oxathiazepin]-2′(3′H)-yl)methyl)-4-methylphenyl)-2,2-dimethyl-3-(8-methyl-3-(trifluoromethyl)-[1,2,4]triazolo[4,3-a][pyridine-7-yl)propanoic Acid] | 11.3 |
| < 1 | Cc1ccc([C@@H](c2ccc3c(nnn3CC3CC3)c2C)C(C)(C)C(=O)O)cc1CN1CC2(CCOCC2)Oc2ncccc2S1(=O)=O (single isomer, unassigned) [Example 428, (S*)-3-(1-(cyclopropylmethyl)-4-methyl-1H-benzo[d][1,2,3]triazol-5-yl)-3-(3-((1′,1′-dioxido-2,3,5,6-tetrahydrospiro[pyran-4,4′-pyrido[2,3-b][1,4,5]oxathiazepin]-2′(3′H)-yl)methyl)-4-methylphenyl)-2,2-dimethylpropanoic Acid] | 399 |
| < 1 | Cc1ccc([C@H](CC(=O)O)c2ccn3c(C(F)(F)F)nnc3c2C)cc1CN1C[C@H]2COCCN2c2ncc(Cl)cc2S1(=O)=O (single isomer, unassigned) [Example 197, (*S)-3-(3-(((*S)-3-Chloro-5,5-dioxido-7a,8,10,11-tetrahydro-[1,4]oxazino[3,4-d]pyrido[2,3-f][1,2,5]thiadiazepin-6(7H)-yl)methyl)-4-methylphenyl)-3-(8-methyl-3-(trifluoromethyl)-[1,2,4]triazolo[4,3-a]pyridin-7-yl)propanoic Acid] | 1.8 |
| 1450 | Cc1cnc2c(c1)S(=O)(=O)N(Cc1cc([C@H](c3ccn4c(C(F)(F)F)nnc4c3C)C(C)(C)C(=O)O)ncc1C)CC1(CC1)O2 (single isomer, unassigned) [Example 589, (*R)-2,2-Dimethyl-3-(8-methyl-3-(trifluoromethyl)-[1,2,4]triazolo[4,3-a]pyridin-7-yl)-3-(5-methyl-4-((8′-methyl-1′,1′-dioxidospiro[cyclopropane-1,4′-pyrido[2,3-b][1,4,5]oxathiazepin]-2′(3′H)-yl)methyl)pyridin-2-yl)propanoic Acid] | 1970 |
| < 1 | Cc1ccc(C(CC(=O)O)c2ccc3c(nnn3CC3CC3)c2C)cc1CN1CC2(CC2)N(C)c2ncccc2S1(=O)=O (centres unmarked) [Example 75, 3-(1-(Cyclopropylmethyl)-4-methyl-1H-benzo[d][1,2,3]triazol-5-yl)-3-(4-methyl-3-((5′-methyl-1′,1′-dioxido-5′H-spiro[cyclopropane-1,4′-pyrido[2,3-f][1,2,5]thiadiazepin]-2′(3′H)-yl)methyl)phenyl)propanoic Acid] | 14 |
| < 1 | Cc1ccc([C@H](CC(=O)O)c2ccc3c(nnn3CC3CC3)c2C)cc1CN1C[C@H]2CCCCN2c2ncccc2S1(=O)=O (single isomer, unassigned) [Example 236, (*S)-3-(1-(Cyclopropylmethyl)-4-methyl-1H-benzo[d][1,2,3]triazol-5-yl)-3-(3-(((*R)-5,5-dioxido-7,7a,8,9,10,11-hexahydro-6H-dipyrido[2,1-d:2′,3′-f][1,2,5]thiadiazepin-6-yl)methyl)-4-methylphenyl)propanoic Acid] | 6.8 |
| < 1 | Cc1cnc2c(c1)S(=O)(=O)N(Cc1cc(C(c3ccc4c(nnn4C4CC4)c3C)C(C)(C)C(=O)O)cnc1C)CC1(CC1)O2 (racemic) [Example 394, (R/S)-3-(1-Cyclopropyl-4-methyl-1H-benzo[d][1,2,3]triazol-5-yl)-2,2-dimethyl-3-(6-methyl-5-((8′-methyl-1′,1′-dioxidospiro[cyclopropane-1,4′-pyrido[2,3-b][1,4,5]oxathiazepin]-2′(3′H)-yl)methyl)pyridin-3-yl)propanoic Acid] | 40.1 |
| < 1 | Cc1ccc(C(CC(=O)O)c2ccn3c(C)nnc3c2)cc1CN1CC(C)(C)Oc2ncccc2S1(=O)=O (racemic) [Example 160, (R/S)-3-(3-((4,4-Dimethyl-1,1-dioxido-3,4-dihydro-2H-pyrido[2,3-b][1,4,5]oxathiazepin-2-yl)methyl)-4-methylphenyl)-3-(3-methyl-[1,2,4]triazolo[4,3-a]pyridin-7-yl)propanoic Acid] | 19000 |
| < 1 | Cc1cnc2c(c1)S(=O)(=O)N(Cc1cc([C@@H](c3ccn4c(C(F)(F)F)nnc4c3C)C(C)(C)C(=O)O)ccc1C)CC1(COC1)O2 (single isomer, unassigned) [Example 614, (*S)-2,2-dimethyl-3-(4-methyl-3-((8′-methyl-1′,1′-dioxidospiro[oxetane-3,4′-pyrido[2,3-b][1,4,5]oxathiazepin]-2′(3′H)-yl)methyl)phenyl)-3-(8-methyl-3-(trifluoromethyl)-[1,2,4]triazolo[4,3-a]pyridine-7-yl)propanoic Acid] | 0.71 |
| 0.127 | Cc1ccc([C@H](CC(=O)O)c2ccn3c(C(F)(F)F)nnc3c2C)cc1CN1CC2(CC2)Oc2ncccc2S1(=O)=O (single isomer, unassigned) [Example 7, (*S)-3-(3-((1′,1′-Dioxidospiro[cyclopropane-1,4′-pyrido[2,3-b][1,4,5]oxathiazepin]-2′(3′H)-yl)methyl)-4-methylphenyl)-3-(8-methyl-3-(trifluoromethyl)-[1,2,4]triazolo[4,3-a]pyridin-7-yl)propanoic Acid] | 74 |
